Source: article PMC8637766, “A mixed chirality α-helix in a stapled bicyclic and a linear antimicrobial peptide revealed by X-ray crystallography” (RSC Chemical Biology, 2021)
In brackets after ≈: the same amount, converted by molar mass. Square brackets hold non-standard residues; d marks the D form. Ends that are not written are not given here. Peptide text beside a SMILES is read from it. * marks the point of attachment. Benzoyl(4-Me) = Cc1ccc(C(=O)*)cc1

How the values were obtained:
[1] = system: P. aeruginosa PAO1; format: cell-based, Pseudomonas aeruginosa
Procedure: (§1) Bicyclic and linear peptides cytotoxicity was assayed against P. aeruginosa PAO1, P. aeruginosa ZEM-1A, P. aeruginosa ZEM9A, K. pneumoniae Oxa-48, E. coli W3110, A. baumannii BAL225, S. aureus Newman, S. aureus COL (clinical isolate of MRSA) , B. Subtilis BR151.
(§2) To determine the Minimal Inhibitory Concentration (MIC), Broth Microdilution method was used . 2 A colony of bacteria from glycerol stock was grown in LB medium overnight at 37 °C and 180 rpm shaking. The compounds were prepared as stock solutions of 8 mg/mL in sterilized milliQ deionized water, added to the first well of 96 -well sterile, polypropylene round bottom microtiter plates (TPP, untreated) and diluted serially by ½. The concentration of the bacteria was quantified by measuring absorbance at 600 nm and diluted to an OD 600 of 0.022 in MH medium. The sample solutions (150 µL) were mixed with 4 µL diluted bacterial suspension with a final inoculation of about 5×10^5 CFU.
(§3) For each test, two columns of the plate were kept for sterility control (MH medium only), growth control (MH medium with bacterial inoculum, no compound). The positive control, Polymyxin B (starting with a concentration of 64 µg/mL) in MH medium with bacterial inoculums, was introduced in the two first lines of the plate. The plates were incubated at 37 °C for ~18 hours under static conditions. 15 μL of 3-(4,5-dimethylthiazol-2-yl)-2,5-diphenyltetrazolium bromide (MTT)3 (1 mg/mL in sterilized milliQ deionized water) were added to each well and the plates were incubated for 20-30 minutes at room temperature. The minimal inhibitory concentration (MIC) was defined as the lowest concentration of the dendrimer that inhibits the visible growth of the tested bacteria (yellow) with the unaided eye.

[2] = system: P. aeruginosa ZEM-1A; format: cell-based, Pseudomonas aeruginosa
Procedure: as §1, §2, §3

[3] = system: P. aeruginosa ZEM9A; format: cell-based, Pseudomonas aeruginosa
Procedure: as §1, §2, §3

[4] = Lipid vesicle leakage assay, 5(6)-carboxyfluorescein release; conditions: 10 μg mL^−1 compound, leakage at 250 s; 10 mM TRIS, 107 mM NaCl, pH 7.4, 25 °C; carboxyfluorescein fluorescence, Triton X-100 = full release
Procedure: 4 Lipid Vesicle Leakage assays
5(6)-carboxyfluorescein (CF) was purchased from Sigma. Egg Yolk Phosphatidylcholine (EYPC),
Egg Yolk Phosphatidylglycerol (EYPG) and a Mini-Extruder were purchased from Avanti Polar
Lipids. Egg PC or Egg PG thin lipid layers were prepared by evaporating a solution of 100 mg EYPC
or EYPG in 4 mL MeOH/CHCl3 (1:1) on a rotary evaporator at room temperature and then dried in
vacuo overnight. The resulting film was then hydrated with 4 mL CF buffer (50 mM CF, 10 mM
TRIS, 107 mM NaCl, pH 7.4) for 30 min, subjected to freeze-thaw cycles (7×) and extrusion (15×)
through a polycarbonate membrane (pore size 100 nm). Extra vesicular components were removed
by gel filtration (Sephadex G-50) with 10 mM TRIS, 107 mM NaCl, pH 7.4 buffer. Final conditions:
~ 2.5 mM PC or PG; inside: 50 mM CF, 10 mM TRIS, 10 mM NaCl, pH 7.4 buffer; outside: 10 mM
TRIS, 107 mM NaCl, pH 7.4. PC or PG stock solutions (37.5 µL) were diluted to 3000 µL with a
buffer (10 mM TRIS, 107 mM NaCl, pH 7.4) in a thermostated fluorescence cuvette (25 °C) and
gently stirred (final lipid concentration ~31 µM). CF efflux was monitored at λem 517 nm (λex 492
nm) as a function of time after addition of the desired volume of peptide (1 or 20 mg/mL stock in mQ
water) at t = 45 s. The following final concentrations of peptide were monitored: 5, 10, 15, 20, 25 and
200 µg/mL. Finally, 30 µL of 1.2% Triton X -100 was added to the cuvette (0.012% final
concentration) at t = 285 s to reach the maximum intensity. Fluorescence intensities were then
Figure S1: Vesicle leakage experiments using 5(6)-carboxyfluorescein induced by peptides. EYPG and EYPC vesicles
were suspended in buffer (10 mM TRIS, 107 mM NaCl, pH 7.4) and the indicated concentration of the compound was
added after 45 sec. After 285 seconds 30 μL Triton X-100 1.2% was added for full release of fluorescein. […]

[5] = system: A. baumannii BAL225; format: cell-based
Procedure: as §1, §2, §3

[6] = system: E. coli W3110; format: cell-based
Procedure: as §1, §2, §3

[7] = system: K. pneumoniae Oxa-48; format: cell-based
Procedure: as §1, §2, §3

[8] = system: S. aureus COL (clinical isolate of MRSA); format: cell-based
Procedure: as §1, §2, §3

[9] = system: S. aureus Newman; format: cell-based
Procedure: as §1, §2, §3

[10] = system: B. subtilis BR151; format: cell-based, Bacillus subtilis; conditions: BR151, 20 h
Procedure: as §1, §2
For each test, two columns of the plate were kept for sterility control (MH medium only), growth control (MH medium with bacterial inoculum, no compound). The positive control, Polymyxin B (starting with a concentration of 64 µg/mL) in MH medium with bacterial inoculums, was introduced in the two first lines of the plate. […]
conditions. 15 μL of 3-(4,5-dimethylthiazol-2-yl)-2,5-diphenyltetrazolium bromide (MTT)3 (1 mg/mL in sterilized milliQ deionized water) were added to each well and the plates were incubated for 20-30 minutes at room temperature. The minimal inhibitory concentration (MIC) was defined as the lowest concentration of the dendrimer that inhibits the visible growth of the tested bacteria (yellow) with the unaided eye.

Molecule	MIC PAO1 [1] [µg/mL]	MIC P. aeruginosa ZEM-1A [2] [µg/mL]	MIC P. aeruginosa ZEM9A [3] [µg/mL]	EYPC vesicle leakage [4] [%]	EYPG vesicle leakage [4] [%]	MIC A. baumannii BAL225 [5] [µg/mL]	MIC E. coli W3110 [6] [µg/mL]	MIC K. pneumoniae Oxa-48 [7] [µg/mL]	MIC S. aureus COL [8] [µg/mL]	MIC S. aureus Newman [9] [µg/mL]	MIC BR 151 [10] [µg/mL]
Cc1c2cc3cc1CSC[C@H](NC(=O)[C@H](CCCCN)NC(=O)[C@H](CC(C)C)NC(=O)[C@H](CC(C)C)NC(=O)[C@H](CCCCN)NC(=O)[C@H](CCCCN)NC3=O)C(=O)N[C@@H](CC(C)C)C(=O)N[C@@H](CCCCN)C(=O)N[C@H](C(=O)N[C@@H](CC(C)C)C(=O)N[C@@H](CC(C)C)C(N)=O)CSC2 [bp65] (HELM PEPTIDE1{K.K.L.L.K.C.L.K.C.L.L.[am]}|CHEM1{[Cc1c(C[*:2])cc(C(=O)[*:1])cc1C[*:3]]}$PEPTIDE1,CHEM1,1:R1-1:R1|PEPTIDE1,CHEM1,6:R3-1:R2|PEPTIDE1,CHEM1,9:R3-1:R3$$$V2.0)	8 (≈ 5.54 µM)	8 (≈ 5.54 µM)	>32	37	34	4 (≈ 2.77 µM)	8 (≈ 5.54 µM)	16 (≈ 11.1 µM)	8 (≈ 5.54 µM)	8 (≈ 5.54 µM)	2 (≈ 1.39 µM)
Cc1c2cc3cc1CSC[C@H](NC(=O)[C@@H](CCCCN)NC(=O)[C@H](CC(C)C)NC(=O)[C@H](CC(C)C)NC(=O)[C@@H](CCCCN)NC(=O)[C@@H](CCCCN)NC3=O)C(=O)N[C@@H](CC(C)C)C(=O)N[C@H](CCCCN)C(=O)N[C@H](C(=O)N[C@@H](CC(C)C)C(=O)N[C@@H](CC(C)C)C(N)=O)CSC2 [bp69] (HELM PEPTIDE1{[dK].[dK].L.L.[dK].C.L.[dK].C.L.L.[am]}|CHEM1{[Cc1c(C[*:2])cc(C(=O)[*:1])cc1C[*:3]]}$PEPTIDE1,CHEM1,1:R1-1:R1|PEPTIDE1,CHEM1,6:R3-1:R2|PEPTIDE1,CHEM1,9:R3-1:R3$$$V2.0)	16 (≈ 11.1 µM)	4 to 8	>32	57	48	4 (≈ 2.77 µM)	8 (≈ 5.54 µM)	16 (≈ 11.1 µM)	4 (≈ 2.77 µM)	2 to 4	
CSC[C@H](NC(=O)[C@H](CCCCN)NC(=O)[C@H](CC(C)C)NC(=O)[C@H](CSC)NC(=O)[C@H](CCCCN)NC(=O)[C@H](CC(C)C)NC(=O)[C@H](CC(C)C)NC(=O)[C@H](CCCCN)NC(=O)[C@H](CCCCN)NC(=O)c1ccc(C)cc1)C(=O)N[C@@H](CC(C)C)C(=O)N[C@@H](CC(C)C)C(N)=O [ln65b] ({Benzoyl(4-Me)}-KKLLKC(Me)LKC(Me)LL-NH2)	4 to 8	4 (≈ 2.76 µM)	16 (≈ 11 µM)			4 (≈ 2.76 µM)	8 (≈ 5.52 µM)	8 (≈ 5.52 µM)	4 (≈ 2.76 µM)	4 (≈ 2.76 µM)	
CC(C)C[C@H](NC(=O)[C@H](CC(C)C)NC(=O)[C@H](CC(C)C)NC(=O)[C@@H](CCCCN)NC(=O)[C@H](CC(C)C)NC(=O)[C@H](CC(C)C)NC(=O)[C@@H](CCCCN)NC(=O)[C@H](CC(C)C)NC(=O)[C@H](CC(C)C)NC(=O)[C@@H](CCCCN)NC(=O)[C@H](N)CCCCN)C(N)=O [ln69] (HELM PEPTIDE1{[dK].[dK].L.L.[dK].L.L.[dK].L.L.L.[am]}$$$$V2.0)	8 (≈ 6.05 µM)	8 (≈ 6.05 µM)	>32			2 to 4	4 (≈ 3.03 µM)	8 (≈ 6.05 µM)	16 (≈ 12.1 µM)	8 (≈ 6.05 µM)	
CSC[C@H](NC(=O)[C@@H](CCCCN)NC(=O)[C@H](CC(C)C)NC(=O)[C@H](CSC)NC(=O)[C@@H](CCCCN)NC(=O)[C@H](CC(C)C)NC(=O)[C@H](CC(C)C)NC(=O)[C@@H](CCCCN)NC(=O)[C@@H](CCCCN)NC(=O)c1ccc(C)cc1)C(=O)N[C@@H](CC(C)C)C(=O)N[C@@H](CC(C)C)C(N)=O [ln69b] ({Benzoyl(4-Me)}-[dK][dK]LL[dK]C(Me)L[dK]C(Me)LL-NH2)	16 (≈ 11 µM)	8 (≈ 5.52 µM)	>32			8 (≈ 5.52 µM)	8 (≈ 5.52 µM)	>32	32 (≈ 22.1 µM)	32 (≈ 22.1 µM)	
KKLLKLLKLLL-NH2 [ln65]	2 to 4	2 to 4	16			2 to 4	4	4	4	2 to 4	
